Measured values as given in US8299089B2, “Multi-arm polymeric conjugates of 7-ethyl-10-hydroxycamptothecin for treatment of breast, colorectal, pancreatic, ovarian and lung cancers” (priority 2006, dated 2012).

Assays:
Colo 205 = test: In vitro cytotoxicity, MTS assay, Colo 205; type: cell-based
Experimental: (§1) In Table 2, the cytotoxicity (μM of each compound that results in an IC50) provides an indication of the in vitro anti-tumor potency of each compound. This study was used to determine the effect of PEGylation of four-arm PEGylated 7-ethyl-10-hydroxycamptothecin conjugates. […] Cells were incubated with drugs for 72 hours at 37° C. Following incubation, MTS dye was added and formation of a colored product (formazan) was measured at 490 nm.

HT29 = test: In vitro cytotoxicity, MTS assay, HT29; type: cell-based
Experimental: as §1

A549 = test: In vitro cytotoxicity, MTS assay, A549; type: cell-based
Experimental: as §1

PANC-1 = test: In vitro cytotoxicity, MTS assay, PANC-1; type: cell-based
Experimental: as §1

MIA PaCa-2 = test: In vitro cytotoxicity, MTS assay, MIA PaCa-2; type: cell-based
Experimental: as §1

ASPC-1 = test: In vitro cytotoxicity, MTS assay, ASPC-1; type: cell-based
Experimental: as §1

BxPC-3 = test: In vitro cytotoxicity, MTS assay, BxPC-3; type: cell-based
Experimental: as §1

OVCAR-3 = test: In vitro cytotoxicity, MTS assay, OVCAR-3; type: cell-based
Experimental: as §1

OV90 = test: In vitro cytotoxicity, MTS assay, OV90; type: cell-based
Experimental: as §1

OVCAR-8 = test: In vitro cytotoxicity, MTS assay, OVCAR-8; type: cell-based
Experimental: as §1

A2780 = test: In vitro cytotoxicity, MTS assay, A2780; type: cell-based
Experimental: as §1

SK-0V-3 = test: In vitro cytotoxicity, MTS assay, SK-0V-3; type: cell-based
Experimental: as §1

[1] = Solubility in aqueous saline solution; type: physicochemical
[2] = Maximum tolerated dose (MTD) in nude mice; details: mouse, in vivo
Excerpt: Mice were monitored for 14 days for mortality and signs of illness and sacrificed when body weight loss was >20% of the pretreatment body weight.

[3] = system: human mammary carcinoma (MX-1); test: Single dose efficacy in MX-1 breast tumor xenograft mouse model; type: in vivo, nude mice; details: day 31
Experimental: Following at least one week of acclimation, tumors were established by implanting small tumor fragments from donor mice into a single subcutaneous site, on the left auxiliary flank region of nude mice. The tumor implantation site was observed twice weekly and measured once palpable. The tumor volume for each mouse was determined by measuring two dimensions with calipers and calculated using the formula: tumor volume=(length×width^2). […] Drugs were administered intravenously via the tail vein as a single dose of 20 mg/kg body weight of a mouse. […] Mouse weight and tumor sizes were measured at the beginning of study and on the 31st day after the single dose administration.
The overall growth of tumors was calculated as the mean tumor volume (TV). A percent treatment over control (T/C) was also calculated. The percentage of tumor regression indicates the in vivo activity of each compound.

[4] = system: human mammary carcinoma (MX-1); test: Multiple dose efficacy in MX-1 breast tumor xenograft mouse model; type: in vivo, nude mice; details: i.v. 5 mg/kg/dose (q2d×6), day 31
Experimental: The mice were dosed 5 mg/kg/day […] (every 2 days [q×2d]×6). Mouse weight and tumor sizes were monitored up to the 31st day after the first dose administration and subsequent administrations.

[5] = system: human mammary, MX-1 tumors; test: Efficacy in small and large MX-1 breast tumor xenografted mice; type: in vivo, nude mice
Experimental: The antitumor efficacy of 4armPEG-Gly-(7-ethyl-10-hydroxycamptothecin) was evaluated in nude mice bearing small (about 100 mm^3) or large (about 450 mm^3) established human mammary, MX-1 tumors. The antitumor therapeutic activities were determined in mice both with a single dose or multiple dose regimens.
Four of six mice were cured as of day 54. […] All animals were sacrificed by day 20 due to excessive tumor burden.

[6] = system: MiaPaCa-2 pancreatic tumor cells; test: Efficacy in MiaPaCa-2 pancreatic tumor xenograft mice; type: in vivo
[7] = system: HT-29 colorectal tumor cells; test: Efficacy in HT-29 colorectal tumor xenograft mice; details: during the treatment
[8] = Hydrolysis / 7-ethyl-10-hydroxycamptothecin release in human plasma; type: in vitro ADME; details: for Doubling Time in Plasma, Human: 7-ethyl-10-hydroxycamptothecin formation rate from conjugates; for t1/2 in Human Plasma: PEG conjugate half life
Excerpt: The aqueous stability and hydrolysis properties in rat and human plasma were monitored using UV based HPLC methods.

[9] = 7-ethyl-10-hydroxycamptothecin release in mouse plasma; type: in vitro ADME; details: 7-ethyl-10-hydroxycamptothecin formation rate from conjugates
[10] = 7-ethyl-10-hydroxycamptothecin release in rat plasma; type: in vitro ADME; details: 7-ethyl-10-hydroxycamptothecin formation rate from conjugates

Compound: CCc1c2c(nc3ccc(O)cc13)-c1cc3c(c(=O)n1C2)COC(=O)[C@]3(O)CC [7-ethyl-10-hydroxycamptothecin]
- IC50 (Colo 205; Table 2, Colo 205, 72 hours, Compound 9 in 7-ethyl-10-hydroxycamptothecin equivalents, average ± SD (n = 3)): 200 ± 200 nM
- IC50 (Colo 205; Table 3, Colo 205 (colorectal)): 80 nM
- IC50 (HT29; Table 2, HT29, 72 hours, Compound 9 in 7-ethyl-10-hydroxycamptothecin equivalents, average ± SD (n = 3)): 100 ± 40 nM
- IC50 (HT29; Table 3, HT29 (colorectal)): 80 nM
- IC50 (A549; Table 2, A549, 72 hours, Compound 9 in 7-ethyl-10-hydroxycamptothecin equivalents, average ± SD (n = 3)): 1000 ± 100 nM
- IC50 (PANC-1; Table 2, PANC-1, 72 hours, Compound 9 in 7-ethyl-10-hydroxycamptothecin equivalents, average ± SD (n = 3)): 560 ± 380 nM
- IC50 (MIA PaCa-2; Table 2, MIA PaCa-2, 72 hours, Compound 9 in 7-ethyl-10-hydroxycamptothecin equivalents, no SD = average of two replicates): 180 nM
- IC50 (ASPC-1; Table 2, ASPC-1, 72 hours, Compound 9 in 7-ethyl-10-hydroxycamptothecin equivalents, average ± SD (n = 3)): 640 ± 130 nM
- IC50 (BxPC-3; Table 2, BxPC-3, 72 hours, Compound 9 in 7-ethyl-10-hydroxycamptothecin equivalents, average ± SD (n = 3)): 540 ± 580 nM
- IC50 (OVCAR-3; Table 2, OVCAR-3, 72 hours, Compound 9 in 7-ethyl-10-hydroxycamptothecin equivalents, average ± SD (n = 3)): 100 ± 20 nM
- IC50 (OV90; Table 2, OV90, 72 hours, Compound 9 in 7-ethyl-10-hydroxycamptothecin equivalents, average ± SD (n = 3)): 100 ± 20 nM
- IC50 (OVCAR-8; Table 2, OVCAR-8, 72 hours, Compound 9 in 7-ethyl-10-hydroxycamptothecin equivalents, average ± SD (n = 3)): 30 ± 10 nM
- IC50 (A2780; Table 2, A2780, 72 hours, Compound 9 in 7-ethyl-10-hydroxycamptothecin equivalents, average ± SD (n = 3)): 20 ± 10 nM
- IC50 (SK-0V-3; Table 2, SK-0V-3, 72 hours, Compound 9 in 7-ethyl-10-hydroxycamptothecin equivalents, average ± SD (n = 3)): 200 ± 100 nM
- Solubility in Saline [1]: ^a7-ethyl-10-hydroxycamptothecin is not soluble in saline.

Compound: CCc1c2c(nc3ccc(OC(=O)N4CCC(N5CCCCC5)CC4)cc13)-c1cc3c(c(=O)n1C2)COC(=O)[C@]3(O)CC [CPT-11, Irinotecan, reference compound]
- MTD at 14 days ([2]; multiple dose (q2d×5)): 40 mg/kg
- MTD at 14 days ([2]; single dose): 80 mg/kg
- IC50 (Colo 205; Homo sapiens, COLO 205): 20000 nM
- IC50 (Colo 205; Homo sapiens, COLO 205, 72 h): 11000 ± 1400 nM
- IC50 (HT29; Homo sapiens, HT-29, 72 h): 27000 ± 8600 nM
- IC50 (HT29; Homo sapiens, HT-29, Table 3, HT29 (colorectal)): 56000 nM
- IC50 (A549; Homo sapiens, A549, 72 h): 67000 ± 17000 nM
- IC50 (A549; Homo sapiens, Table 3, A549 (lung)): 13000 nM
- IC50 (PANC-1; Homo sapiens, PANC-1, 72 h): 34000 ± 16000 nM
- IC50 (MIA PaCa-2; Homo sapiens, MIA PaCa-2, 72 h): 67000 ± 46000 nM
- IC50 (ASPC-1; Homo sapiens, ASPC1, 72 h): 33000 ± 1000 nM
- IC50 (BxPC-3; Homo sapiens, BXPC-3, 72 h): 44000 ± 44000 nM
- IC50 (OVCAR-3; Homo sapiens, OVCAR-3, 72 h): 20000 ± 7100 nM
- IC50 (OVCAR-3; Homo sapiens, Table 3, OVCAR-3 (ovarian)): 41000 nM
- IC50 (OV90; Homo sapiens, OV-90, 72 h): 18000 ± 4800 nM
- IC50 (OVCAR-8; Homo sapiens, OVCAR-8, 72 h): 9000 ± 1300 nM
- IC50 (A2780; Homo sapiens, A2780, 72 h): 8000 ± 3500 nM
- IC50 (SK-0V-3; 72 h): 52000 ± 8500 nM
- Mean TV ± SD ([3]; single dose i.v. 20 mg/kg (conjugate as 7-ethyl-10-hydroxycamptothecin equivalent)): 845 ± 50 mm^3
- Cures ([3]; single dose i.v. 20 mg/kg): 0%
- F/I ([3]; single dose i.v. 20 mg/kg): 843%
- Median TV ([3]; single dose i.v. 20 mg/kg): 845 mm^3
- Regressions ([3]; single dose i.v. 20 mg/kg): 0%
- Survival ([3]; single dose i.v. 20 mg/kg): 0%
- T/C ([3]; single dose i.v. 20 mg/kg): 108%
- TGI ([3]; single dose i.v. 20 mg/kg): 26%
- Chg in TV ± SD [4]: 423 ± 243%
- Cures [4]: 0%
- F/I [4]: 594%
- Mean TV ± SD [4]: 632 ± 698 mm^3
- Median TV [4]: 340 mm^3
- Regressions [4]: 0%
- Survival [4]: 0%
- T/C [4]: 43%
- TGI [4]: 44%
- effect on body weight ([5]; given at the MTD, for the duration of the treatment): did not significantly decrease the body weight
- tumor growth inhibition ([5]; large tumors, 10 mg/kg q2d×5): effective TGI until treatment was discontinued, after which tumors regrew
- mice in which tumors regrew ([5]; large tumors, 40 mg/kg q2d×5, after ~5 weeks): four of the six
- TGI ([5]; large tumors, multiple doses at MTD 40 mg/kg q2d×5, as of day 13): ~95%
- TGI ([5]; large tumors, single MTD 80 mg/kg, day 13): 70%
- TGI ([5]; small tumors (about 100 mm^3), multiple doses 20 mg/kg q2d×5, as of day 31): 44%
- TGI ([5]; small tumors (about 100 mm^3), single dose 20 mg/kg): did not inhibit tumor growth
- TGI ([6]; multiple doses i.v. (10 mg/kg/dose for five days; CPT-11 also 40 mg/kg/dose)): 34%
- TGI ([6]; single dose i.v. (30 mg/kg; CPT-11 also 80 mg/kg)): 0%
- effect on body weight [7]: did not significantly decrease the body of weight

Compound: ^40K4arm-PEG-Sar-(20)-(7-ethyl-10-hydroxycamptothecin) [Compound 23]
- IC50 (Colo 205; Table 3, Colo 205 (colorectal)): 40 nM
- IC50 (HT29; Table 3, HT29 (colorectal)): 270 nM
- IC50 (A549; Table 3, A549 (lung)): 11000 nM
- IC50 (OVCAR-3; Table 3, OVCAR-3 (ovarian)): 170 nM
- Chg in TV ± SD [4]: −87 ± 12%
- Cures [4]: 100%
- F/I [4]: 13%
- Mean TV ± SD [4]: 12 ± 10 mm^3
- Median TV [4]: 14.6 mm^3
- Regressions [4]: 100%
- Survival [4]: 100%
- T/C [4]: 1.9%
- TGI [4]: 99%
- Doubling Time in Plasma, Human [8]: 28.8 min
- t1/2 in Human Plasma [8]: 19.0 min
- Doubling Time in Plasma, Mouse [9]: 43.4 min
- Doubling Time in Plasma, Rat [10]: 481 min

Compound: ^40k4arm-PEG-Ala-(20)-(7-ethyl-10-hydroxycamptothecin) [Compound 12]
- IC50 (Colo 205; Table 3, Colo 205 (colorectal)): 30 nM
- IC50 (HT29; Table 3, HT29 (colorectal)): 160 nM
- IC50 (A549; Table 3, A549 (lung)): 4400 nM
- IC50 (OVCAR-3; Table 3, OVCAR-3 (ovarian)): 140 nM
- Chg in TV ± SD [4]: −91 ± 11%
- Cures [4]: 67%
- F/I [4]: 10%
- Mean TV ± SD [4]: 10 ± 11 mm^3
- Median TV [4]: 9.6 mm^3
- Regressions [4]: 100%
- Survival [4]: 100%
- T/C [4]: 1.2%
- TGI [4]: 99%
- Solubility in Saline [1]: 121 mg/mL
- Doubling Time in Plasma, Human [8]: 51.9 min
- t1/2 in Human Plasma [8]: 12.5 min
- Doubling Time in Plasma, Mouse [9]: 45.8 min
- Doubling Time in Plasma, Rat [10]: 753 min

Compound: ^40k4arm-PEG-Met-(20)-(7-ethyl-10-hydroxycamptothecin) [Compound 18]
- IC50 (Colo 205; Table 3, Colo 205 (colorectal)): 30 nM
- IC50 (HT29; Table 3, HT29 (colorectal)): 140 nM
- IC50 (A549; Table 3, A549 (lung)): 1600 nM
- IC50 (OVCAR-3; Table 3, OVCAR-3 (ovarian)): 130 nM
- Chg in TV ± SD [4]: −94 ± 7%
- Cures [4]: 100%
- F/I [4]: 7.8%
- Mean TV ± SD [4]: 8 ± 9 mm^3
- Median TV [4]: 5.6 mm^3
- Regressions [4]: 100%
- Survival [4]: 100%
- T/C [4]: 0.7%
- TGI [4]: 99%
- Solubility in Saline [1]: 142 mg/mL
- Doubling Time in Plasma, Human [8]: 22.2 min
- t1/2 in Human Plasma [8]: 26.8 min
- Doubling Time in Plasma, Mouse [9]: 41.9 min
- Doubling Time in Plasma, Rat [10]: 1920 min
